Measurements reported in ChEMBL document CHEMBL3885881, “DrugMatrix”.

Species on record: Rattus norvegicus
Test: DrugMatrix - Regimen: Daily Repeat
Format: toxicity, organism-based, Sprague-Dawley
Design: regimen Daily Repeat, gender Male, age 6-8 weeks
Conditions: in vivo, po, route oral GAVAGE, vehicle .5 % CMC; for ABSOLUTE BASOPHIL / ABSOLUTE EOSINOPHIL / ABSOLUTE LYMPHOCYTE / ABSOLUTE MONOCYTE / ABSOLUTE SEGMENTED NEUTROPHIL / BASOPHIL / EOSINOPHIL / ERYTHROCYTE COUNT / HEMATOCRIT / HEMOGLOBIN / LEUKOCYTE COUNT / LYMPHOCYTE / MEAN CORPUSCULAR HEMOGLOBIN / MEAN CORPUSCULAR HEMOGLOBIN CONCENTRATION / MEAN CORPUSCULAR VOLUME / MONOCYTE / NEUTROPHIL / NUCLEATED RED BLOOD CELLS / PLATELET COUNT: tissue Blood; for ALANINE AMINOTRANSFERASE / ALBUMIN / ALKALINE PHOSPHATASE / ASPARTATE AMINOTRANSFERASE / BLOOD UREA NITROGEN / CARBON DIOXIDE / CHLORIDE / CHOLESTEROL / CREATINE PHOSPHOKINASE / CREATININE / GLUCOSE / LACTATE DEHYDROGENASE / LIPASE / PHOSPHORUS / POTASSIUM / SODIUM / TOTAL BILIRUBIN / TOTAL PROTEIN / URIC ACID: tissue Plasma
[1] = 0 mg/kg, 72 h, dose level Control, time 3 day
[2] = 0 mg/kg, 120 h, dose level Control, time 5 day
[3] = 10 mg/kg, 72 h, dose level Low, time 3 day
[4] = 10 mg/kg, 120 h, dose level Low, time 5 day
[5] = 2500 mg/kg, 72 h, dose level High, time 3 day

## CCOC(=O)[C@H](CCc1ccccc1)N[C@@H](C)C(=O)N1Cc2ccccc2C[C@H]1C(=O)O
[1]
  ABSOLUTE BASOPHIL: 0 CELLS/uL
  ABSOLUTE EOSINOPHIL: 0 CELLS/uL
  ABSOLUTE LYMPHOCYTE: 12191.17 CELLS/uL
  ABSOLUTE MONOCYTE: 183.17 CELLS/uL
  ABSOLUTE SEGMENTED NEUTROPHIL: 1192.33 CELLS/uL
  BASOPHIL: 0%
  EOSINOPHIL: 0%
  ERYTHROCYTE COUNT: 5.51 x10E6/uL
  HEMATOCRIT: 35.45%
  HEMOGLOBIN: 13.82 G/DL
  LEUKOCYTE COUNT: 13.57 x10E3/uL
  LYMPHOCYTE: 89.83%
  MEAN CORPUSCULAR HEMOGLOBIN: 25.1 pg
  MEAN CORPUSCULAR HEMOGLOBIN CONCENTRATION: 38.98 G/DL
  MEAN CORPUSCULAR VOLUME: 64.42 fL
  MONOCYTE: 1.33%
  NEUTROPHIL: 8.83%
  NUCLEATED RED BLOOD CELLS: 0 /100WBC
  PLATELET COUNT: 1118.17 x10E3/uL
  ALANINE AMINOTRANSFERASE: 55 u/L
  ALBUMIN: 4.15 G/DL
  ALKALINE PHOSPHATASE: 449.5 u/L
  ASPARTATE AMINOTRANSFERASE: 112.83 u/L
  BLOOD UREA NITROGEN: 17.33 mg/dL
  CARBON DIOXIDE: 29.5 mmol/L
  CHLORIDE: 101 MEQ/L
  CHOLESTEROL: 70 mg/dL
  CREATINE PHOSPHOKINASE: 1325.83 u/L
  CREATININE: 0.18 mg/dL
  GLUCOSE: 171.5 mg/dL
  LACTATE DEHYDROGENASE: 386 u/L
  LIPASE: 10 u/L
  PHOSPHORUS: 11.57 mg/dL
  POTASSIUM: 6.21 MEQ/L
  SODIUM: 141.65 MEQ/L
  TOTAL BILIRUBIN: 0.15 mg/dL
  TOTAL PROTEIN: 5.75 G/DL
  URIC ACID: 1.28 mg/dL
[2]
  ABSOLUTE BASOPHIL: 0 CELLS/uL
  ABSOLUTE EOSINOPHIL: 138.17 CELLS/uL
  ABSOLUTE LYMPHOCYTE: 13283.17 CELLS/uL
  ABSOLUTE MONOCYTE: 303.83 CELLS/uL
  ABSOLUTE SEGMENTED NEUTROPHIL: 1308.17 CELLS/uL
  BASOPHIL: 0%
  EOSINOPHIL: 1%
  ERYTHROCYTE COUNT: 5.32 x10E6/uL
  HEMATOCRIT: 33.8%
  HEMOGLOBIN: 13.63 G/DL
  LEUKOCYTE COUNT: 15.03 x10E3/uL
  LYMPHOCYTE: 88.33%
  MEAN CORPUSCULAR HEMOGLOBIN: 25.68 pg
  MEAN CORPUSCULAR HEMOGLOBIN CONCENTRATION: 40.35 G/DL
  MEAN CORPUSCULAR VOLUME: 63.67 fL
  MONOCYTE: 1.83%
  NEUTROPHIL: 8.83%
  NUCLEATED RED BLOOD CELLS: 0 /100WBC
  PLATELET COUNT: 1097.5 x10E3/uL
  ALANINE AMINOTRANSFERASE: 54.5 u/L
  ALBUMIN: 4.27 G/DL
  ALKALINE PHOSPHATASE: 337 u/L
  ASPARTATE AMINOTRANSFERASE: 94.67 u/L
  BLOOD UREA NITROGEN: 17 mg/dL
  CARBON DIOXIDE: 28.33 mmol/L
  CHLORIDE: 101.5 MEQ/L
  CHOLESTEROL: 71.33 mg/dL
  CREATINE PHOSPHOKINASE: 628.17 u/L
  CREATININE: 0.19 mg/dL
  GLUCOSE: 177.83 mg/dL
  LACTATE DEHYDROGENASE: 500.5 u/L
  LIPASE: 9.5 u/L
  PHOSPHORUS: 12.3 mg/dL
  POTASSIUM: 5.63 MEQ/L
  SODIUM: 143.03 MEQ/L
  TOTAL BILIRUBIN: 0.2 mg/dL
  TOTAL PROTEIN: 6.02 G/DL
  URIC ACID: 1.5 mg/dL
[3]
  ABSOLUTE BASOPHIL: 0 CELLS/uL
  ABSOLUTE EOSINOPHIL: 39 CELLS/uL
  ABSOLUTE LYMPHOCYTE: 11213 CELLS/uL
  ABSOLUTE MONOCYTE: 0 CELLS/uL
  ABSOLUTE SEGMENTED NEUTROPHIL: 1148 CELLS/uL
  BASOPHIL: 0%
  EOSINOPHIL: 0.33%
  ERYTHROCYTE COUNT: 5.3 x10E6/uL
  HEMATOCRIT: 34.07%
  HEMOGLOBIN: 13.93 G/DL
  LEUKOCYTE COUNT: 12.4 x10E3/uL
  LYMPHOCYTE: 90.33%
  MEAN CORPUSCULAR HEMOGLOBIN: 26.33 pg
  MEAN CORPUSCULAR HEMOGLOBIN CONCENTRATION: 40.9 G/DL
  MEAN CORPUSCULAR VOLUME: 64.37 fL
  MONOCYTE: 0%
  NEUTROPHIL: 9.33%
  NUCLEATED RED BLOOD CELLS: 0 /100WBC
  PLATELET COUNT: 1446.33 x10E3/uL
  ALANINE AMINOTRANSFERASE: 57.33 u/L
  ALBUMIN: 4.43 G/DL
  ALKALINE PHOSPHATASE: 414 u/L
  ASPARTATE AMINOTRANSFERASE: 111.67 u/L
  BLOOD UREA NITROGEN: 19.33 mg/dL
  CARBON DIOXIDE: 27 mmol/L
  CHLORIDE: 101.33 MEQ/L
  CHOLESTEROL: 71.67 mg/dL
  CREATINE PHOSPHOKINASE: 1227 u/L
  CREATININE: 0.15 mg/dL
  GLUCOSE: 179.67 mg/dL
  LACTATE DEHYDROGENASE: 229.67 u/L
  LIPASE: 10 u/L
  PHOSPHORUS: 12.13 mg/dL
  POTASSIUM: 6.89 MEQ/L
  SODIUM: 142.53 MEQ/L
  TOTAL BILIRUBIN: 0.23 mg/dL
  TOTAL PROTEIN: 6.1 G/DL
  URIC ACID: 1.73 mg/dL
[4]
  ABSOLUTE BASOPHIL: 0 CELLS/uL
  ABSOLUTE EOSINOPHIL: 0 CELLS/uL
  ABSOLUTE LYMPHOCYTE: 9146.67 CELLS/uL
  ABSOLUTE MONOCYTE: 149.33 CELLS/uL
  ABSOLUTE SEGMENTED NEUTROPHIL: 970.67 CELLS/uL
  BASOPHIL: 0%
  EOSINOPHIL: 0%
  ERYTHROCYTE COUNT: 5.39 x10E6/uL
  HEMATOCRIT: 34.63%
  HEMOGLOBIN: 13.67 G/DL
  LEUKOCYTE COUNT: 10.27 x10E3/uL
  LYMPHOCYTE: 89.33%
  MEAN CORPUSCULAR HEMOGLOBIN: 25.4 pg
  MEAN CORPUSCULAR HEMOGLOBIN CONCENTRATION: 39.47 G/DL
  MEAN CORPUSCULAR VOLUME: 64.27 fL
  MONOCYTE: 1.33%
  NEUTROPHIL: 9.33%
  NUCLEATED RED BLOOD CELLS: 0 /100WBC
  PLATELET COUNT: 1332.67 x10E3/uL
  ALANINE AMINOTRANSFERASE: 53 u/L
  ALBUMIN: 4.43 G/DL
  ALKALINE PHOSPHATASE: 351.67 u/L
  ASPARTATE AMINOTRANSFERASE: 77 u/L
  BLOOD UREA NITROGEN: 17.33 mg/dL
  CARBON DIOXIDE: 31.33 mmol/L
  CHLORIDE: 101.33 MEQ/L
  CHOLESTEROL: 100.67 mg/dL
  CREATINE PHOSPHOKINASE: 265.67 u/L
  CREATININE: 0.14 mg/dL
  GLUCOSE: 137.33 mg/dL
  LACTATE DEHYDROGENASE: 201.67 u/L
  LIPASE: 10 u/L
  PHOSPHORUS: 11.8 mg/dL
  POTASSIUM: 6.69 MEQ/L
  SODIUM: 143.93 MEQ/L
  TOTAL BILIRUBIN: 0.23 mg/dL
  TOTAL PROTEIN: 6.3 G/DL
  URIC ACID: 1.2 mg/dL
[5]
  ABSOLUTE BASOPHIL: 0 CELLS/uL
  ABSOLUTE EOSINOPHIL: 56.33 CELLS/uL
  ABSOLUTE LYMPHOCYTE: 14978 CELLS/uL
  ABSOLUTE MONOCYTE: 125.33 CELLS/uL
  ABSOLUTE SEGMENTED NEUTROPHIL: 2373.67 CELLS/uL
  BASOPHIL: 0%
  EOSINOPHIL: 0.33%
  ERYTHROCYTE COUNT: 5.38 x10E6/uL
  HEMATOCRIT: 35.27%
  HEMOGLOBIN: 13.67 G/DL
  LEUKOCYTE COUNT: 17.53 x10E3/uL
  LYMPHOCYTE: 85.67%
  MEAN CORPUSCULAR HEMOGLOBIN: 25.4 pg
  MEAN CORPUSCULAR HEMOGLOBIN CONCENTRATION: 38.77 G/DL
  MEAN CORPUSCULAR VOLUME: 65.5 fL
  MONOCYTE: 0.67%
  NEUTROPHIL: 13.33%
  NUCLEATED RED BLOOD CELLS: 0 /100WBC
  PLATELET COUNT: 1317 x10E3/uL
  ALANINE AMINOTRANSFERASE: 63.33 u/L
  ALBUMIN: 4.37 G/DL
  ALKALINE PHOSPHATASE: 310 u/L
  ASPARTATE AMINOTRANSFERASE: 80.67 u/L
  BLOOD UREA NITROGEN: 19.33 mg/dL
  CARBON DIOXIDE: 28.67 mmol/L
  CHLORIDE: 98.67 MEQ/L
  CHOLESTEROL: 107 mg/dL
  CREATINE PHOSPHOKINASE: 346.67 u/L
  CREATININE: 0.21 mg/dL
  GLUCOSE: 155.67 mg/dL
  LACTATE DEHYDROGENASE: 272.33 u/L
  LIPASE: 12.33 u/L
  PHOSPHORUS: 12.8 mg/dL
  POTASSIUM: 6.92 MEQ/L
  SODIUM: 140.37 MEQ/L
  TOTAL BILIRUBIN: 0.17 mg/dL
  TOTAL PROTEIN: 6.17 G/DL
  URIC ACID: 1.6 mg/dL
